Tests used:
[1] = target: T1, MDR1 (Homo sapiens, UniProt P08183); assay: Reversal of MDR1-mediated vincristine resistance in HL60/VCR cells; assay type: cell-based; conditions: oncolytic alone at the tested concentration
T1 construct: HL60/ADR and HL60/VCR are continuous cell lines, which were selected for doxorubicin and vincristine resistance respectively; endogenous in cells; host or cells: HL60/VCR (vincristine-selected HL60 human acute myeloblastic leukemia cells)
Procedure: (§1) Assay for Reversal of MRP1-Mediated Doxorubicin Resistance and MDR1-Mediated Vincristine Resistance: HL60/ADR and HL60/VCR are continuous cell lines, which were selected for doxorubicin and vincristine resistance respectively by culturing HL60, a human acute myeloblastic leukemia cell line, in increasing concentrations of doxorubicin or vincristine until a highly resistant variant was attained.
(§2) HL60/ADR and HL60/VCR cells were grown in RPMI 1640 (Gibco) containing […] (FBS) and 250 μg/ml GENTAMICIN™ (Sigma). Cells were harvested; washed twice with assay medium (same as culture media); counted; and diluted to 2×10^5 cells/ml in assay medium. Fifty microliters of cells were aliquoted into wells of a 96 well tissue culture plate. One column of each 96 well plate served as a negative control and received assay medium containing no cells.
(§3) Test compounds and reference compounds were dissolved in dimethyl sulfoxide (DMSO) at a concentration of 5 mM. Samples were diluted to 20 μM in assay medium and 25 μl of each test compound was added to 6 wells. Assay standards were run in quadruplicate. Twenty-five microliters of 0.4% DMSO was added to four wells as a solvent control.

[2] = target: T2, MRP1 (Homo sapiens, UniProt P33527); assay: Reversal of MRP1-mediated doxorubicin resistance in HL60/ADR cells; assay type: cell-based; conditions: HL60/ADR cells (printed EL60/ADR), oncolytic alone at the tested concentration
T2 construct: HL60/ADR and HL60/VCR are continuous cell lines, which were selected for doxorubicin and vincristine resistance respectively; endogenous in cells; host or cells: HL60/ADR (doxorubicin-selected HL60 human acute myeloblastic leukemia cells)
T2 sequence (P33527 whole entry): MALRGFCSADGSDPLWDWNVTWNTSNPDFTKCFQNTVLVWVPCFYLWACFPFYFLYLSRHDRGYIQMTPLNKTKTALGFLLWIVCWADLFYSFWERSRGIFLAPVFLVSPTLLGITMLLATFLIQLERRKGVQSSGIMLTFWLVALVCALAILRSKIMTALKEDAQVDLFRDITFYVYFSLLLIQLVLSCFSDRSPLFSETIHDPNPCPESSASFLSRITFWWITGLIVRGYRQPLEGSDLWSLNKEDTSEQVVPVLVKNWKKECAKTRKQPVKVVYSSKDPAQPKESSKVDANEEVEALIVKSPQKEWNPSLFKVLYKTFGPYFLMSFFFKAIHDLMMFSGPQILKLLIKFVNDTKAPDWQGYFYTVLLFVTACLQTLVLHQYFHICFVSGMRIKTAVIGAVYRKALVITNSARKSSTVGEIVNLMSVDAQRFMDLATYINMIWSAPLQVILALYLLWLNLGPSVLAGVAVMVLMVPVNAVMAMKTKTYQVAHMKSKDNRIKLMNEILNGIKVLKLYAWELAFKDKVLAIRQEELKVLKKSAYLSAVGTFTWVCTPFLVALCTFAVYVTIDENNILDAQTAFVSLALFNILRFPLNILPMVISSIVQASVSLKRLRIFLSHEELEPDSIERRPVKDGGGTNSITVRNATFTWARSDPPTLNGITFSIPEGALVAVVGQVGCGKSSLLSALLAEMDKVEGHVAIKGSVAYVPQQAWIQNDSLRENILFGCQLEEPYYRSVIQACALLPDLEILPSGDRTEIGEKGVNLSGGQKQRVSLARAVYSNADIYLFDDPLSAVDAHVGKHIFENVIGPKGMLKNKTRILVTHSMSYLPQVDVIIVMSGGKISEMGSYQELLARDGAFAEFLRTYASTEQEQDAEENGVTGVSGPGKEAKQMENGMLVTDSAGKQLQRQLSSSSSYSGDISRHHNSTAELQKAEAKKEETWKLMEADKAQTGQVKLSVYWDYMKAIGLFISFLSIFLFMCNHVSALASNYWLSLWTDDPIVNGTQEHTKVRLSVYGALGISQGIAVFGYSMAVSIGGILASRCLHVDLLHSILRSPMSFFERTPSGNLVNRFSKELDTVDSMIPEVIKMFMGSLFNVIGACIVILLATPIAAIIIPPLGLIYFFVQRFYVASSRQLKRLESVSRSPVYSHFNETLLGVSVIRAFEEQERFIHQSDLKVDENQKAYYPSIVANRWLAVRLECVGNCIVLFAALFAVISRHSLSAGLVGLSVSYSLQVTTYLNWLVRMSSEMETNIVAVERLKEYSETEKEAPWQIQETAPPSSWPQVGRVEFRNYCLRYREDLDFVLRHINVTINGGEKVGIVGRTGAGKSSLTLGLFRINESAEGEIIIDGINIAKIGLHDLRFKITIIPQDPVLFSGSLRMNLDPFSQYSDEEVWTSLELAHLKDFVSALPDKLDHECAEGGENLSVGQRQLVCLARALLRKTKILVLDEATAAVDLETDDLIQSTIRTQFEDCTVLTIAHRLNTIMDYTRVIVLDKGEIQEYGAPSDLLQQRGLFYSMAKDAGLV
Procedure: as §1, §2, §3

T1 sequence (P08183 whole entry): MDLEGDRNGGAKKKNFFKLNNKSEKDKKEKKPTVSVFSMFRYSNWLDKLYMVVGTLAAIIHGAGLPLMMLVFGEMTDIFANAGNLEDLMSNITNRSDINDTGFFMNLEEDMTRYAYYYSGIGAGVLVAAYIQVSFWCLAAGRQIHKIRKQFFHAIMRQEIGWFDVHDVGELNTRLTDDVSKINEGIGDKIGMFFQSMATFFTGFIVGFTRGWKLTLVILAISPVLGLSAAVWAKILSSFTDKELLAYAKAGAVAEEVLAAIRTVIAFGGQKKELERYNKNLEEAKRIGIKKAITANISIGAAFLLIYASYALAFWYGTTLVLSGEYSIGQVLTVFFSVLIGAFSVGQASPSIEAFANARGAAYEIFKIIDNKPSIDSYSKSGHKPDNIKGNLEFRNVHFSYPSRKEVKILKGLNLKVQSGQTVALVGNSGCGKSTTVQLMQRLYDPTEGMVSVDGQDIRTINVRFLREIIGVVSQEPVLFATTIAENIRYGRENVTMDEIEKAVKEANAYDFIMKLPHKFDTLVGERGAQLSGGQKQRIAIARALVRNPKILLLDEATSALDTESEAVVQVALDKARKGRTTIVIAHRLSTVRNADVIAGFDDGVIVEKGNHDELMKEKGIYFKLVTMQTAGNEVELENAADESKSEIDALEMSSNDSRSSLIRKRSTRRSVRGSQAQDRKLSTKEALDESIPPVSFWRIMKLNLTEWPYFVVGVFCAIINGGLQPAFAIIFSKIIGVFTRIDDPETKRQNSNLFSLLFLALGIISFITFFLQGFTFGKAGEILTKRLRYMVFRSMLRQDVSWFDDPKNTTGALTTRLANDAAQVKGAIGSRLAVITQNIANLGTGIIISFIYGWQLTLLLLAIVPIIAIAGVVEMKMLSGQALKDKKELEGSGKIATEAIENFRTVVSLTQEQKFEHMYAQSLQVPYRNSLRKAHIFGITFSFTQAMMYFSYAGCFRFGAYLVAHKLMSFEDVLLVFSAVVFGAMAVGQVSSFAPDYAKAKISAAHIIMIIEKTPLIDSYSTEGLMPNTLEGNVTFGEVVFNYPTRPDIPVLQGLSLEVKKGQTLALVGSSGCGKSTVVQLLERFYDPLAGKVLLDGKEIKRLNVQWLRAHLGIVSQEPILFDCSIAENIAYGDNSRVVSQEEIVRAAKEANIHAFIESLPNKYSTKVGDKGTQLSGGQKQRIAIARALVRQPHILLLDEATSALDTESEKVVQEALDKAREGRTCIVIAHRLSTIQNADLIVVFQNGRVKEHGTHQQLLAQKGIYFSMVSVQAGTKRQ

inhibition of cell growth by the oncolytic alone [2]: does not usually inhibit the growth
SMILES: COc1cccc2c1C(=O)c1c(O)c3c(c(O)c1C2=O)C[C@@](O)(C(=O)CO)C[C@@H]3O[C@H]1C[C@H](N)[C@H](O)[C@H](C)O1 [doxorubicin]
inhibition of cell growth by the oncolytic alone [1]: does not usually inhibit the growth

— patent US6369070B1, “Methods for inhibiting mrp1” (Eli Lilly and Company, priority 1998, dated 2002)
